According to ChEMBL document CHEMBL1201862, “PubChem BioAssay data set” (2004):
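The compound was tested at five concentrations on cells cultured in 96-well plates, with a 48-hour exposure period. GI50 is the concentration that inhibits growth by half.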 Activity calls are given as the source filed them. No stated cut-off is given here; in the data, active = GI50 up to about 1.1 µM and inactive = higher.

What was measured:
Test in all cases: NCI anticancer screen, dose series, 48 h
HCT-116 = test system: HCT-116
SF-295 = test system: SF-295
NCI-H226 = test system: NCI-H226
SK-MEL-28 = test system: SK-MEL-28
K562 = test system: K562
RXF 393 = test system: RXF 393
OVCAR-3 = test system: OVCAR-3
LOX IMVI = test system: LOX IMVI
MDA-N = test system: MDA-N
PC-3 = test system: PC-3
A549 = test system: A549
M14 = test system: M14
T47D = test system: T47D
Malme-3M = test system: Malme-3M
HOP-92 = test system: HOP-92
SNB-19 = test system: SNB-19
ACHN = test system: ACHN
U-251 = test system: U-251
MDA-MB-435 = test system: MDA-MB-435
EKVX = test system: EKVX

SMILES	GI50 (HCT-116)	GI50 (SF-295)	GI50 (NCI-H226)	GI50 (SK-MEL-28)	GI50 (K562)	GI50 (RXF 393)	GI50 (OVCAR-3)	GI50 (LOX IMVI)	GI50 (MDA-N)	GI50 (PC-3)	GI50 (A549)	GI50 (M14)	GI50 (T47D)	GI50 (Malme-3M)	GI50 (HOP-92)	GI50 (SNB-19)	GI50 (ACHN)	GI50 (U-251)	GI50 (MDA-MB-435)	GI50 (EKVX)
OCCCN=C1CCCCC1	> 100 µM (inactive)	> 100 µM (inactive)	> 100 µM (inactive)	> 100 µM (inactive)	> 100 µM (inactive)	> 100 µM (inactive)	> 100 µM (inactive)	> 100 µM (inactive)	> 100 µM (inactive)	> 100 µM (inactive)	> 100 µM (inactive)	> 100 µM (inactive)	> 100 µM (inactive)	> 100 µM (inactive)	> 100 µM (inactive)	> 100 µM (inactive)	> 100 µM (inactive)	> 100 µM (inactive)	> 100 µM (inactive)	> 100 µM (inactive)
Cn1c(COC(=O)Nc2ccccc2)c(COC(=O)Nc2ccccc2)c2ccc3cc(Cl)c(Cl)cc3c21	9.66 µM (inactive)	18.7 µM (inactive)	13.4 µM (inactive)	3.61 µM (inactive)	1.07 µM (active)	9.64 µM (inactive)	11 µM (inactive)	2.52 µM (inactive)	8.07 µM (inactive)	8.05 µM (inactive)	23.3 µM (inactive)	7.71 µM (inactive)	1.53 µM (inactive)	1.74 µM (inactive)	2.1 µM (inactive)	4.24 µM (inactive)	8.79 µM (inactive)	1.95 µM (inactive)	7.87 µM (inactive)	15.9 µM (inactive)
CC(=O)O/C=C\OC1CCCC1(c1ccccc1)c1ccccc1 (stereo not given)	1.98 µM (inactive)	8.11 µM (inactive)	9.04 µM (inactive)	2.1 µM (inactive)	2.16 µM (inactive)	2.3 µM (inactive)	2.9 µM (inactive)	1.63 µM (inactive)	2.31 µM (inactive)	3.12 µM (inactive)	20.4 µM (inactive)	2.47 µM (inactive)	2.47 µM (inactive)	2.18 µM (inactive)	1.82 µM (inactive)	11.2 µM (inactive)	2.03 µM (inactive)	3.52 µM (inactive)	1.96 µM (inactive)	7.5 µM (inactive)
COc1c(-c2cc(C)c(Cl)c(=O)[nH]2)c(O)c(OC)c2occc12	> 100 µM (inactive)	> 100 µM (inactive)	> 100 µM (inactive)	> 100 µM (inactive)	> 100 µM (inactive)	52.2 µM (inactive)	> 100 µM (inactive)	> 100 µM (inactive)	> 100 µM (inactive)	> 100 µM (inactive)	> 100 µM (inactive)	> 100 µM (inactive)	> 100 µM (inactive)	> 100 µM (inactive)	23.1 µM (inactive)	96.4 µM (inactive)	> 100 µM (inactive)	> 100 µM (inactive)	> 100 µM (inactive)	> 100 µM (inactive)
CC(C)=CCC[C@H](C)[C@H]1CC[C@@H](C)c2cc(O)c(C)cc21	18.4 µM (inactive)	16.9 µM (inactive)	18 µM (inactive)	18.5 µM (inactive)	20.1 µM (inactive)	20.7 µM (inactive)	18.8 µM (inactive)	16.3 µM (inactive)	17.4 µM (inactive)	17.4 µM (inactive)	17.1 µM (inactive)	18.4 µM (inactive)	16.9 µM (inactive)	18.6 µM (inactive)	16.7 µM (inactive)	16.6 µM (inactive)	16.8 µM (inactive)	17.1 µM (inactive)	18.6 µM (inactive)	17.6 µM (inactive)
Cc1cccc2c(N)c3cccc(C(=O)NCC[N+]4(Cc5ccc([N+](=O)[O-])cc5)CCOCC4)c3nc12	16.1 µM (inactive)	27.5 µM (inactive)	41 µM (inactive)	49.7 µM (inactive)	16 µM (inactive)	62.2 µM (inactive)	61.1 µM (inactive)	39.9 µM (inactive)	59.6 µM (inactive)	40.4 µM (inactive)	31.5 µM (inactive)	71.8 µM (inactive)	29.2 µM (inactive)	29.4 µM (inactive)	22.4 µM (inactive)	18.2 µM (inactive)	29 µM (inactive)	38.8 µM (inactive)	80.5 µM (inactive)	36.2 µM (inactive)
COc1cc(CNc2nc3ccccc3n2Cc2ccccc2)cc(CN2CCOCC2)c1O	21.2 µM (inactive)	19.3 µM (inactive)	30.8 µM (inactive)	18.4 µM (inactive)	21.5 µM (inactive)	18.2 µM (inactive)	20.6 µM (inactive)	15.5 µM (inactive)	27.4 µM (inactive)	29.4 µM (inactive)	47.5 µM (inactive)	24.7 µM (inactive)	> 100 µM (inactive)	19.1 µM (inactive)	12.1 µM (inactive)	61.8 µM (inactive)	39.6 µM (inactive)	31.2 µM (inactive)	22.5 µM (inactive)	53.3 µM (inactive)
Cc1cc(C)c([S@@](=O)O[C@@H]2[C@H]3OC(C)(C)O[C@H]3O[C@@H]2[C@H]2COC(C)(C)O2)c(C)c1	24.8 µM (inactive)	29 µM (inactive)	24.6 µM (inactive)	29.1 µM (inactive)	25.9 µM (inactive)	19.3 µM (inactive)	19.7 µM (inactive)	14 µM (inactive)	26.6 µM (inactive)	19.9 µM (inactive)	29.4 µM (inactive)	25.6 µM (inactive)	37.5 µM (inactive)	25.5 µM (inactive)	16.6 µM (inactive)	40 µM (inactive)	15.3 µM (inactive)	20.2 µM (inactive)	18.2 µM (inactive)	20.4 µM (inactive)
N#CC(C#N)=CNC(N)=S	> 100 µM (inactive)	> 100 µM (inactive)	> 100 µM (inactive)	> 100 µM (inactive)	> 100 µM (inactive)	> 100 µM (inactive)	1.5 µM (inactive)	> 100 µM (inactive)	> 100 µM (inactive)	> 100 µM (inactive)	> 100 µM (inactive)	> 100 µM (inactive)	> 100 µM (inactive)	> 100 µM (inactive)	> 100 µM (inactive)	> 100 µM (inactive)	> 100 µM (inactive)	> 100 µM (inactive)	> 100 µM (inactive)	> 100 µM (inactive)
O=C(O)c1ccccc1CC1Cc2ccccc2C1=O (stereo not given)	> 100 µM (inactive)	> 100 µM (inactive)	> 100 µM (inactive)	> 100 µM (inactive)	> 100 µM (inactive)	> 100 µM (inactive)	> 100 µM (inactive)	> 100 µM (inactive)	> 100 µM (inactive)	> 100 µM (inactive)	> 100 µM (inactive)	> 100 µM (inactive)	> 100 µM (inactive)	> 100 µM (inactive)	> 100 µM (inactive)	> 100 µM (inactive)	> 100 µM (inactive)	> 100 µM (inactive)	> 100 µM (inactive)	> 100 µM (inactive)
O=C(CSc1nc2ccc(Cl)cc2c(=O)n1-c1ccccc1)N/N=C1\C(=O)Nc2ccc(F)cc21	2.02 µM (inactive)	4.2 µM (inactive)	3.5 µM (inactive)	3.05 µM (inactive)	3.72 µM (inactive)	1.76 µM (inactive)	1.89 µM (inactive)	1.78 µM (inactive)	2.67 µM (inactive)	2.39 µM (inactive)	2.37 µM (inactive)	3.21 µM (inactive)	2.07 µM (inactive)	3.57 µM (inactive)	2.49 µM (inactive)	2.97 µM (inactive)	1.98 µM (inactive)	1.74 µM (inactive)	2.43 µM (inactive)	3 µM (inactive)
O=C(/C=C/c1ccc(O)cc1)c1ccc2c(c1)OCO2	12.5 µM (inactive)	21.8 µM (inactive)	15.5 µM (inactive)	20.9 µM (inactive)	20.6 µM (inactive)	19.3 µM (inactive)	16.5 µM (inactive)	18.7 µM (inactive)	24 µM (inactive)	24.6 µM (inactive)	19.4 µM (inactive)	18.5 µM (inactive)	26.6 µM (inactive)	31.8 µM (inactive)	22.4 µM (inactive)	17.1 µM (inactive)	21.9 µM (inactive)	18.4 µM (inactive)	22.8 µM (inactive)	36.2 µM (inactive)
CC(C)C1CC(CO)(CNc2nc(N)nc(Cl)c2/C=N\O)C1 (stereo not given)	12.6 µM (inactive)	1.01 µM (active)	14.8 µM (inactive)	12.8 µM (inactive)	0.0843 µM (active)	18.8 µM (inactive)	13.7 µM (inactive)	0.339 µM (active)	11.3 µM (inactive)	9.27 µM (inactive)	1.76 µM (inactive)	13.1 µM (inactive)	1.25 µM (inactive)	3.22 µM (inactive)	12.5 µM (inactive)	20.1 µM (inactive)	8.51 µM (inactive)	14.5 µM (inactive)	12.6 µM (inactive)	0.264 µM (active)
COc1ccc(/C=C2\CN(C)CC3=C2OC(N)=C(C#N)C3c2ccc(OC)cc2)cc1 (stereo not given)	24.3 µM (inactive)	57.5 µM (inactive)	> 100 µM (inactive)	> 100 µM (inactive)	33.6 µM (inactive)	20.7 µM (inactive)	21.6 µM (inactive)	42.7 µM (inactive)	21.8 µM (inactive)	> 25.8 µM (inactive)	23 µM (inactive)	97.1 µM (inactive)	13.6 µM (inactive)	14.3 µM (inactive)	4.66 µM (inactive)	> 86.7 µM (inactive)	29.6 µM (inactive)	38 µM (inactive)	17.7 µM (inactive)	43.4 µM (inactive)
